# Data from PubChem BioAssay AID2060500 (Molecular Pharmacology Branch, DTP, NCI, 2025).
# Test system: 596521-263-R-J1-PDC complex spheroids, viability % of control
# Experiment: Anticancer human tumor 596521-263-R-J1-PDC patient-derived soft tissue sarcoma cell line growth inhibition [GQUAD]
# Conditions: for IC50: curve of first compound; for viability, T/C: stronger effect = lower value
# How it was run: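 Viability of tumor cells grown as complex spheroids with endothelial and stromal cells, exposed to drug combinations. Top concentration at or near clinical Cmax (else 10 microM), diluted in half-log increments.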
# [1] = second compound 0.0316 µM, first compound 0.0316 µM
# [2] = second compound 0.0316 µM, first compound 0.1 µM
# [3] = second compound 0.0316 µM, first compound 0.316 µM
# [4] = second compound 0.0316 µM, first compound 1 µM
# [5] = second compound 0.0316 µM, first compound 3.16 µM
# [6] = second compound 0.0316 µM, first compound 10 µM
# [7] = second compound 0.1 µM, first compound 0.0316 µM
# [8] = second compound 0.1 µM, first compound 0.1 µM
# [9] = second compound 0.1 µM, first compound 0.316 µM
# [10] = second compound 0.1 µM, first compound 1 µM
# [11] = second compound 0.1 µM, first compound 3.16 µM
# [12] = second compound 0.1 µM, first compound 10 µM
# [13] = second compound 0.316 µM, first compound 0.0316 µM
# [14] = second compound 0.316 µM, first compound 0.1 µM
# [15] = second compound 0.316 µM, first compound 0.316 µM
# [16] = second compound 0.316 µM, first compound 1 µM
# [17] = second compound 0.316 µM, first compound 3.16 µM
# [18] = second compound 0.316 µM, first compound 10 µM
# [19] = second compound 1 µM, first compound 0.0316 µM
# [20] = second compound 1 µM, first compound 0.1 µM
# [21] = second compound 1 µM, first compound 0.316 µM
# [22] = second compound 1 µM, first compound 1 µM
# [23] = second compound 1 µM, first compound 3.16 µM
# [24] = second compound 1 µM, first compound 10 µM
# [25] = second compound 3.16 µM, first compound 0.0316 µM
# [26] = second compound 3.16 µM, first compound 0.1 µM
# [27] = second compound 3.16 µM, first compound 0.316 µM
# [28] = second compound 3.16 µM, first compound 1 µM
# [29] = second compound 3.16 µM, first compound 3.16 µM
# [30] = second compound 3.16 µM, first compound 10 µM
# [31] = second compound 10 µM, first compound 0.0316 µM
# [32] = second compound 10 µM, first compound 0.1 µM
# [33] = second compound 10 µM, first compound 0.316 µM
# [34] = second compound 10 µM, first compound 1 µM
# [35] = second compound 10 µM, first compound 3.16 µM
# [36] = second compound 10 µM, first compound 10 µM
# 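Further: spheroids exposed to drugs for 7 days before viability reading.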
# 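Wherever viability, T/C is given: 100% = DMSO vehicle control viability.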
structure (smiles),measurement,setting,value
COc1cccc2c1C(=O)c1c(O)c3c(c(O)c1C2=O)CC(O)(C(=O)CO)CC3OC1CC(N)C(O)C(C)O1 (stereo unspecified) + Cc1[nH]c2ccc(F)cc2c1-c1nc2c3cccnc3c3ncccc3c2[nH]1,IC50,second compound 0.0316 µM,0.719 µM
same,IC50,second compound 0.1 µM,0.655 µM
same,IC50,second compound 0.316 µM,0.802 µM
same,IC50,second compound 1 µM,0.578 µM
same,IC50,second compound 3.16 µM,0.965 µM
same,IC50,second compound 10 µM,0.7 µM
same,"viability, T/C",[1],98%
same,"viability, T/C",[2],76.6%
same,"viability, T/C",[3],64%
same,"viability, T/C",[4],48.9%
same,"viability, T/C",[5],26.6%
same,"viability, T/C",[6],3.55%
same,"viability, T/C",[7],93.8%
same,"viability, T/C",[8],77%
same,"viability, T/C",[9],57.9%
same,"viability, T/C",[10],44.9%
same,"viability, T/C",[11],29.7%
same,"viability, T/C",[12],4.66%
same,"viability, T/C",[13],112%
same,"viability, T/C",[14],70.3%
same,"viability, T/C",[15],68%
same,"viability, T/C",[16],54.5%
same,"viability, T/C",[17],27.1%
same,"viability, T/C",[18],3.9%
same,"viability, T/C",[19],96.5%
same,"viability, T/C",[20],66.5%
same,"viability, T/C",[21],59.2%
same,"viability, T/C",[22],50.4%
same,"viability, T/C",[23],25.6%
same,"viability, T/C",[24],4.37%
same,"viability, T/C",[25],82.7%
same,"viability, T/C",[26],68.9%
same,"viability, T/C",[27],63.2%
same,"viability, T/C",[28],54.9%
same,"viability, T/C",[29],25.7%
same,"viability, T/C",[30],3.86%
same,"viability, T/C",[31],75.1%
same,"viability, T/C",[32],62.4%
same,"viability, T/C",[33],62.6%
same,"viability, T/C",[34],45.9%
same,"viability, T/C",[35],25.6%
same,"viability, T/C",[36],3.33%
CC1COCCN1c1cc(C2(S(C)(=N)=O)CC2)nc(-c2ccnc3[nH]ccc23)n1 (stereo unspecified) + CN(C)c1ccc(Nc2c3ccc(NC(=O)CCN4CCCC4)cc3nc3cc(NC(=O)CCN4CCCC4)ccc23)cc1,IC50,second compound 0.0316 µM,> 10 µM
same,IC50,second compound 0.1 µM,9.59 µM
same,IC50,second compound 0.316 µM,> 10 µM
same,IC50,second compound 1 µM,> 10 µM
same,IC50,second compound 3.16 µM,> 10 µM
same,IC50,second compound 10 µM,4.38 µM
same,"viability, T/C",[1],93.1%
same,"viability, T/C",[2],97.1%
same,"viability, T/C",[3],86.9%
same,"viability, T/C",[4],77.9%
same,"viability, T/C",[5],62.9%
same,"viability, T/C",[6],52.3%
same,"viability, T/C",[7],97.5%
same,"viability, T/C",[8],97.7%
same,"viability, T/C",[9],95.1%
same,"viability, T/C",[10],71.5%
same,"viability, T/C",[11],64.8%
same,"viability, T/C",[12],48%
same,"viability, T/C",[13],96.6%
same,"viability, T/C",[14],90.8%
same,"viability, T/C",[15],87.3%
same,"viability, T/C",[16],85.1%
same,"viability, T/C",[17],54.2%
same,"viability, T/C",[18],51.2%
same,"viability, T/C",[19],90.4%
same,"viability, T/C",[20],103%
same,"viability, T/C",[21],94.1%
same,"viability, T/C",[22],76.4%
same,"viability, T/C",[23],64.3%
same,"viability, T/C",[24],57.3%
same,"viability, T/C",[25],94.5%
same,"viability, T/C",[26],83.1%
same,"viability, T/C",[27],78.2%
same,"viability, T/C",[28],80%
same,"viability, T/C",[29],61.4%
same,"viability, T/C",[30],50%
same,"viability, T/C",[31],66.8%
same,"viability, T/C",[32],67.1%
same,"viability, T/C",[33],65.6%
same,"viability, T/C",[34],52.8%
same,"viability, T/C",[35],53.8%
same,"viability, T/C",[36],44.9%
O=C(c1cc(Cc2n[nH]c(=O)c3ccccc23)ccc1F)N1CCN(C(=O)C2CC2)CC1 + Cc1[nH]c2ccc(F)cc2c1-c1nc2c3cccnc3c3ncccc3c2[nH]1,IC50,second compound 0.0316 µM,> 10 µM
same,IC50,second compound 0.1 µM,> 10 µM
same,IC50,second compound 0.316 µM,> 10 µM
same,IC50,second compound 1 µM,> 10 µM
same,IC50,second compound 3.16 µM,> 10 µM
same,IC50,second compound 10 µM,> 10 µM
same,"viability, T/C",[1],97.8%
same,"viability, T/C",[2],97.8%
same,"viability, T/C",[3],98.6%
same,"viability, T/C",[4],85.8%
same,"viability, T/C",[5],89.8%
same,"viability, T/C",[6],69.8%
same,"viability, T/C",[7],91.6%
same,"viability, T/C",[8],83.3%
same,"viability, T/C",[9],88.3%
same,"viability, T/C",[10],94.7%
same,"viability, T/C",[11],76.8%
same,"viability, T/C",[12],66.2%
same,"viability, T/C",[13],95%
same,"viability, T/C",[14],105%
same,"viability, T/C",[15],91.8%
same,"viability, T/C",[16],104%
same,"viability, T/C",[17],78.5%
same,"viability, T/C",[18],66.3%
same,"viability, T/C",[19],104%
same,"viability, T/C",[20],87.9%
same,"viability, T/C",[21],94.7%
same,"viability, T/C",[22],85.2%
same,"viability, T/C",[23],91.4%
same,"viability, T/C",[24],65.5%
same,"viability, T/C",[25],94%
same,"viability, T/C",[26],83.3%
same,"viability, T/C",[27],88.4%
same,"viability, T/C",[28],80.8%
same,"viability, T/C",[29],75.4%
same,"viability, T/C",[30],57.2%
same,"viability, T/C",[31],77.4%
same,"viability, T/C",[32],73.7%
same,"viability, T/C",[33],75.8%
same,"viability, T/C",[34],66.2%
same,"viability, T/C",[35],72.6%
same,"viability, T/C",[36],58.5%
